From ChEMBL document CHEMBL3885861, “Open TG-GATES”

Organism: Rattus norvegicus
Experiment: Open TG-GATES - Regimen: Daily Repeat
Format: toxicity, organism-based, Sprague-Dawley
Set-up: regimen Daily Repeat, gender Male, age 6 weeks
Conditions: in vivo, po, 30 mg/kg, route gavage, dose level Low; for APTT / Bas / Eos / Fbg / Hb / Ht / Lym / MCH / MCHC / MCV / Mono / Neu / PT / Plat / RBC / Ret / WBC: tissue Blood; for KIDNEY_L / KIDNEY_R / KIDNEY_TOTAL: tissue Kidney; for LIVER: tissue Liver; for A/G / ALP / ALT / AST / BUN / CRE / Ca / Cl / DBIL / GLC / IP / K / LDH / Na / PL / RALB / TBIL / TC / TG / TP / gamma-GTP: tissue Plasma

Work on Brc1ccccc1 [BROMOBENZENE] yielded a TERMINAL_BW (72 h, time 3 day) of 211.4 g, an APTT (72 h, time 3 day) of 16.2 s and a Bas (72 h, time 3 day) of 0%. For the same compound, the Eos (72 h, time 3 day) was 1%, the Fbg (72 h, time 3 day) was 274.2 mg/dL and the Hb (72 h, time 3 day) was 13.2 g/dL. For the same compound, the Ht (72 h, time 3 day) was 38.9%, the Lym (72 h, time 3 day) was 76.6% and the MCH (72 h, time 3 day) was 21.2 pg. The MCHC (72 h, time 3 day) was 34%, the MCV (72 h, time 3 day) was 62.4 fL and the Mono (72 h, time 3 day) was 4.2%. The Neu (72 h, time 3 day) was 17.8%, the PT (72 h, time 3 day) was 12 s and the Plat (72 h, time 3 day) was 113.4 x10_4/uL. It also gave an RBC (72 h, time 3 day) of 624.8 x10_4/ul, a Ret (72 h, time 3 day) of 7.4% and a WBC (72 h, time 3 day) of 117.5 x10_2/uL. The KIDNEY_L (72 h, time 3 day) was 0.9 g, the KIDNEY_R (72 h, time 3 day) was 0.9 g and the KIDNEY_TOTAL (72 h, time 3 day) was 1.8 g. For the same compound, the LIVER (72 h, time 3 day) was 10.6 g, the A/G (72 h, time 3 day) was 0.9 and the ALP (72 h, time 3 day) was 1588.2 IU/L. It also gave an ALT (72 h, time 3 day) of 54.2 IU/L, an AST (72 h, time 3 day) of 70.2 IU/L and a BUN (72 h, time 3 day) of 13.8 mg/dL. The CRE (72 h, time 3 day) was 0.2 mg/dL, the Ca (72 h, time 3 day) was 10.4 mg/dL and the Cl (72 h, time 3 day) was 105.2 meq/L. The DBIL (72 h, time 3 day) was 0.012 mg/dL, the GLC (72 h, time 3 day) was 182 mg/dL and the IP (72 h, time 3 day) was 7.3 mg/dL. For the same compound, the K (72 h, time 3 day) was 4.1 meq/L, the LDH (72 h, time 3 day) was 77 IU/L and the Na (72 h, time 3 day) was 142 meq/L. The PL (72 h, time 3 day) was 154 mg/dL, the RALB (72 h, time 3 day) was 2.6 g/dL and the TBIL (72 h, time 3 day) was 0.05 mg/dL. For the same compound, the TC (72 h, time 3 day) was 84.6 mg/dL, the TG (72 h, time 3 day) was 76 mg/dL and the TP (72 h, time 3 day) was 5.6 g/dL. It also gave a gamma-GTP (72 h, time 3 day) of 1.2 IU/L, a TERMINAL_BW ([…], time 7 day) of 250.4 g and a TERMINAL_BW ([…], time 14 day) of 301.3 g. It also gave a TERMINAL_BW ([…], time 28 day) of 378.5 g, an APTT ([…], time 7 day) of 16.1 s and a Bas ([…], time 7 day) of 0%. For the same compound, the Eos ([…], time 7 day) was 1%, the Fbg ([…], time 7 day) was 272.4 mg/dL and the Hb ([…], time 7 day) was 12.9 g/dL. For the same compound, the Ht ([…], time 7 day) was 37.6%, the Lym ([…], time 7 day) was 78% and the MCH ([…], time 7 day) was 21.3 pg. For the same compound, the MCHC ([…], time 7 day) was 34.4%, the MCV ([…], time 7 day) was 62 fL and the Mono ([…], time 7 day) was 2.6%. The Neu ([…], time 7 day) was 18%, the PT ([…], time 7 day) was 12.7 s and the Plat ([…], time 7 day) was 117.9 x10_4/uL. The RBC ([…], time 7 day) was 606.8 x10_4/ul, the Ret ([…], time 7 day) was 6.2% and the WBC ([…], time 7 day) was 100.6 x10_2/uL. It also gave an APTT ([…], time 14 day) of 16 s, a Bas ([…], time 14 day) of 0% and an Eos ([…], time 14 day) of 0.8%. The Fbg ([…], time 14 day) was 316.2 mg/dL, the Hb ([…], time 14 day) was 14.2 g/dL and the Ht ([…], time 14 day) was 41.2%. The Lym ([…], time 14 day) was 81.6%, the MCH ([…], time 14 day) was 20.5 pg and the MCHC ([…], time 14 day) was 34.5%. It also gave an MCV ([…], time 14 day) of 59.2 fL, a Mono ([…], time 14 day) of 2.6% and a Neu ([…], time 14 day) of 14.4%. For the same compound, the PT ([…], time 14 day) was 11.7 s, the Plat ([…], time 14 day) was 116 x10_4/uL and the RBC ([…], time 14 day) was 696.6 x10_4/ul. The Ret ([…], time 14 day) was 4.2%, the WBC ([…], time 14 day) was 87.7 x10_2/uL and the APTT ([…], time 28 day) was 16.4 s. The Bas ([…], time 28 day) was 0.2%, the Eos ([…], time 28 day) was 1.2% and the Fbg ([…], time 28 day) was 305.8 mg/dL. The Hb ([…], time 28 day) was 15 g/dL, the Ht ([…], time 28 day) was 42.8% and the Lym ([…], time 28 day) was 75.6%. For the same compound, the MCH ([…], time 28 day) was 19.7 pg, the MCHC ([…], time 28 day) was 35% and the MCV ([…], time 28 day) was 56.2 fL. It also gave a Mono ([…], time 28 day) of 3%, a Neu ([…], time 28 day) of 19% and a PT ([…], time 28 day) of 12.6 s. The Plat ([…], time 28 day) was 103.7 x10_4/uL, the RBC ([…], time 28 day) was 762.2 x10_4/ul and the Ret ([…], time 28 day) was 2.7%. The WBC ([…], time 28 day) was 101.5 x10_2/uL, the KIDNEY_L ([…], time 7 day) was 1 g and the KIDNEY_R ([…], time 7 day) was 1 g. The KIDNEY_TOTAL ([…], time 7 day) was 2 g, the KIDNEY_L ([…], time 14 day) was 1.2 g and the KIDNEY_R ([…], time 14 day) was 1.2 g. The KIDNEY_TOTAL ([…], time 14 day) was 2.4 g, the KIDNEY_L ([…], time 28 day) was 1.3 g and the KIDNEY_R ([…], time 28 day) was 1.3 g. The KIDNEY_TOTAL ([…], time 28 day) was 2.7 g, the LIVER ([…], time 7 day) was 12.3 g and the LIVER ([…], time 14 day) was 14.5 g. The LIVER ([…], time 28 day) was 16.3 g, the A/G ([…], time 7 day) was 0.9 and the ALP ([…], time 7 day) was 1766.2 IU/L. For the same compound, the ALT ([…], time 7 day) was 40.6 IU/L, the AST ([…], time 7 day) was 71 IU/L and the BUN ([…], time 7 day) was 14.4 mg/dL. It also gave a CRE ([…], time 7 day) of 0.2 mg/dL, a Ca ([…], time 7 day) of 11.1 mg/dL and a Cl ([…], time 7 day) of 105.2 meq/L. For the same compound, the DBIL ([…], time 7 day) was 0.01 mg/dL, the GLC ([…], time 7 day) was 195 mg/dL and the IP ([…], time 7 day) was 7 mg/dL. For the same compound, the K ([…], time 7 day) was 3.9 meq/L, the LDH ([…], time 7 day) was 109 IU/L and the Na ([…], time 7 day) was 143.4 meq/L. The PL ([…], time 7 day) was 143 mg/dL, the RALB ([…], time 7 day) was 2.7 g/dL and the TBIL ([…], time 7 day) was 0.042 mg/dL. The TC ([…], time 7 day) was 74.6 mg/dL, the TG ([…], time 7 day) was 84.4 mg/dL and the TP ([…], time 7 day) was 5.8 g/dL. For the same compound, the gamma-GTP ([…], time 7 day) was 1.4 IU/L, the A/G ([…], time 14 day) was 0.8 and the ALP ([…], time 14 day) was 1573.2 IU/L. The ALT ([…], time 14 day) was 40 IU/L, the AST ([…], time 14 day) was 65 IU/L and the BUN ([…], time 14 day) was 15.2 mg/dL. For the same compound, the CRE ([…], time 14 day) was 0.2 mg/dL, the Ca ([…], time 14 day) was 11 mg/dL and the Cl ([…], time 14 day) was 105.6 meq/L. It also gave a DBIL ([…], time 14 day) of 0.01 mg/dL, a GLC ([…], time 14 day) of 191.6 mg/dL and an IP ([…], time 14 day) of 6.8 mg/dL. It also gave a K ([…], time 14 day) of 4.1 meq/L, an LDH ([…], time 14 day) of 84.8 IU/L and a Na ([…], time 14 day) of 143 meq/L. The PL ([…], time 14 day) was 158.2 mg/dL, the RALB ([…], time 14 day) was 2.8 g/dL and the TBIL ([…], time 14 day) was 0.038 mg/dL. It also gave a TC ([…], time 14 day) of 74.2 mg/dL, a TG ([…], time 14 day) of 159.4 mg/dL and a TP ([…], time 14 day) of 6.2 g/dL. It also gave a gamma-GTP ([…], time 14 day) of 0.8 IU/L, an A/G ([…], time 28 day) of 0.8 and an ALP ([…], time 28 day) of 1032.4 IU/L. The ALT ([…], time 28 day) was 36 IU/L, the AST ([…], time 28 day) was 59.8 IU/L and the BUN ([…], time 28 day) was 15.8 mg/dL. The CRE ([…], time 28 day) was 0.2 mg/dL, the Ca ([…], time 28 day) was 10.7 mg/dL and the Cl ([…], time 28 day) was 105.8 meq/L. For the same compound, the DBIL ([…], time 28 day) was 0.016 mg/dL, the GLC ([…], time 28 day) was 190.2 mg/dL and the IP ([…], time 28 day) was 6 mg/dL. It also gave a K ([…], time 28 day) of 3.8 meq/L, an LDH ([…], time 28 day) of 58.6 IU/L and a Na ([…], time 28 day) of 142.8 meq/L. It also gave a PL ([…], time 28 day) of 152.2 mg/dL, an RALB ([…], time 28 day) of 2.9 g/dL and a TBIL ([…], time 28 day) of 0.034 mg/dL. For the same compound, the TC ([…], time 28 day) was 80.6 mg/dL, the TG ([…], time 28 day) was 141.4 mg/dL and the TP ([…], time 28 day) was 6.5 g/dL. The gamma-GTP ([…], time 28 day) was 1 IU/L.
